Assay results reported in ChEMBL document CHEMBL5154681, “Small Amphiphilic Peptides: Activity Against a Broad Range of Drug-Resistant Bacteria and Structural Insight into Membranolytic Properties” (J Med Chem, 2022).
Values after ≈ are worked out from the molar mass of the structure shown. Active and inactive are the calls of the source. The rule behind the calls is not given here. Bridge positions count the residues as written; N and C are the ends. Square brackets hold non-standard residues; d marks the D form. Peptide text beside a SMILES is read from it. * marks the point of attachment. Dip = N[C@H](C(=O)O)C(c1ccccc1)c1ccccc1; X1 = CC[C@H](C)CCCCC(=O)*; Dab = NCC[C@H](N)C(=O)O

Assays:
[1] = test system: Streptococcus pneumoniae; experiment: Antibacterial activity against multidrug resistant […] ATCC 700677 incubated for 24 hrs by microtiter plate method; type: functional
[2] = test system: Staphylococcus aureus; experiment: Antibacterial activity against Staphylococcus aureus ATCC 29213 incubated for 24 hrs by microtiter plate method; type: functional; settings: Staphylococcus aureus, ATCC 29213, read-out: MIC
[3] = test system: Klebsiella pneumoniae; experiment: Antibacterial activity against Klebsiella pneumoniae ATCC 13883 […] incubated for 24 hrs by microtiter plate method; type: functional
[4] = test system: Bacillus subtilis; experiment: Antibacterial activity against Bacillus subtilis ATCC 6633 incubated for 24 hrs by microtiter plate method; type: functional
[5] = test system: Pseudomonas aeruginosa; experiment: Antibacterial activity against Pseudomonas aeruginosa ATCC 10145 incubated for 24 hrs by microtiter plate method; type: functional
[6] = test system: Streptococcus pneumoniae; experiment: Antibacterial activity against […] ATCC 49619 incubated for 24 hrs by microtiter plate method; type: functional
[7] = test system: Enterococcus faecium; experiment: Antibacterial activity against Enterococcus faecium ATCC 27270 incubated for 24 hrs by microtiter plate method; type: functional
[8] = test system: Escherichia coli; experiment: Antibacterial activity against Escherichia coli ATCC 25922 incubated for 24 hrs by microtiter plate method; type: functional; settings: Escherichia coli
[9] = Selectivity ratio of MIC for antibacterial activity against Klebsiella pneumoniae ATCC 13883 to MIC for antibacterial activity against carbapenem-resistant Klebsiella pneumoniae ATCC BAA-2470; type: functional
[10] = test system: Pseudomonas aeruginosa; experiment: Antibacterial activity against imipenem resistant Pseudomonas aeruginosa ATCC BAA-1744 incubated for 24 hrs by microtiter plate method; type: functional
[11] = test system: Escherichia coli; experiment: Antibacterial activity against Escherichia coli NDM-1-resistant ATCC BAA-2452 incubated for 24 hrs by microtiter plate method; type: functional
[12] = test system: Enterococcus faecium; experiment: Antibacterial activity against vancomycin-resistant Enterococcus faecium ATCC 700221 incubated for 24 hrs by microtiter plate method; type: functional
[13] = test system: Bacillus cereus; experiment: Antibacterial activity against Bacillus cereus ATCC 13061 incubated for 24 hrs by microtiter plate method; type: functional
[14] = test system: Staphylococcus aureus; experiment: Antibacterial activity against methicillin resistant Staphylococcus aureus ATCC BAA-1556 incubated for 24 hrs by microtiter plate method; type: functional; settings: Staphylococcus aureus, ATCC BAA-1556, 24 h, read-out: MIC
[15] = test system: Enterococcus faecalis; experiment: Antibacterial activity against vancomycin-resistant Enterococcus faecalis ATCC 51575 incubated for 24 hrs by microtiter plate method; type: functional
[16] = test system: Pseudomonas aeruginosa; experiment: Antibacterial activity against Pseudomonas aeruginosa ATCC 27883 incubated for 24 hrs by microtiter plate method; type: functional; settings: Pseudomonas aeruginosa
[17] = Selectivity ratio of MIC for antibacterial activity against Pseudomonas aeruginosa ATCC 10145 to MIC for antibacterial activity against imipenem-resistant Pseudomonas aeruginosa ATCC BAA-1744; type: functional
[18] = test system: Enterococcus faecalis; experiment: Antibacterial activity against Enterococcus faecalis ATCC 29212 incubated for 24 hrs by microtiter plate method; type: functional
[19] = Hemolytic activity in human RBC assessed as hemolysis incubated for 2 hrs by spectrophotometer analysis; type: toxicity, cell-based, Erythrocyte; settings: human red blood cells (erythrocytes)
[20] = test system: Klebsiella pneumoniae; experiment: Antibacterial activity against carbapenem-resistant Klebsiella pneumoniae ATCC BAA-2470 incubated for 24 hrs by microtiter plate method; type: functional
[21] = test system: Acinetobacter baumannii; experiment: Antibacterial activity against ciprofloxacin resistance Acinetobacter baumannii ATCC BAA1605 incubated for 24 hrs by microtiter plate method; type: functional
[22] = test system: Escherichia coli; experiment: Bactericidal activity against Escherichia coli ATCC BAA-2452 assessed as reduction of bacterial growth at 4 times MIC by counting formed colonies; type: functional, organism-based; settings: time <= 4.0 hrs, TDE = time-dependent effect
[23] = test system: Staphylococcus aureus; experiment: Bactericidal activity against methicillin resistant Staphylococcus aureus ATCC BAA-1556 assessed as reduction of bacterial growth at MIC by counting formed colonies; type: functional, organism-based; settings: time <= 4.0 hrs, TDE = time-dependent effect
[24] = test system: Escherichia coli; experiment: Antibacterial activity against Escherichia coli ATCC 25922 after 24 hrs in presence of 2 mM CaCl2 at by microtiter plate method; type: functional
[25] = test system: Escherichia coli; experiment: Antibacterial activity against Escherichia coli ATCC 25922 assessed as reduction in microbial growth after 24 hrs in presence of 6 mM of NH4Cl at by microtiter plate method; type: functional
[26] = test system: Staphylococcus aureus; experiment: Bactericidal activity against methicillin resistant Staphylococcus aureus ATCC BAA-1556 assessed as time required for complete reduction of bacterial growth at MIC by counting formed colonies; type: functional
[27] = test system: Escherichia coli; experiment: Antibacterial activity against Escherichia coli ATCC 25922 after 24 hrs in presence of fetal bovine serum by microtiter plate method; type: functional
[28] = test system: Escherichia coli; experiment: Antibacterial activity against Escherichia coli ATCC 25922 incubated for 24 hrs; type: functional
[29] = test system: Staphylococcus aureus; experiment: Bactericidal activity against methicillin resistant Staphylococcus aureus ATCC BAA-1556 assessed as time required for complete reduction of bacterial growth at 4 times MIC by counting formed colonies; type: functional
[30] = test system: Escherichia coli; experiment: Bactericidal activity against Escherichia coli ATCC BAA-2452 assessed as reduction of bacterial growth at MIC by counting formed colonies; type: functional, organism-based; settings: time <= 4.0 hrs, TDE = time-dependent effect
[31] = test system: Escherichia coli; experiment: Antibacterial activity against Escherichia coli ATCC 25922 after 24 hrs in presence of 4.5 mM of KCl at by microtiter plate method; type: functional
[32] = test system: Escherichia coli; experiment: Antibacterial activity against Escherichia coli ATCC 25922 after 24 hrs in presence of 1 mM of MgCl2 at by microtiter plate method; type: functional
[33] = test system: Staphylococcus aureus; experiment: Bactericidal activity against methicillin resistant Staphylococcus aureus ATCC BAA-1556 assessed as reduction of bacterial growth at 4 times MIC by counting formed colonies; type: functional, organism-based; settings: time <= 4.0 hrs, TDE = time-dependent effect
[34] = test system: Escherichia coli; experiment: Antibacterial activity against Escherichia coli ATCC 25922 after 24 hrs in presence of 150 mM NaCl by microtiter plate method; type: functional
[35] = test system: Staphylococcus aureus; experiment: Antibacterial activity against methicillin resistant Staphylococcus aureus ATCC BAA-1556 after 24 hrs in presence of 150 mM of NaCl by microtiter plate method; type: functional
[36] = test system: Staphylococcus aureus; experiment: Antibacterial activity against methicillin resistant Staphylococcus aureus ATCC BAA-1556 after 24 hrs in presence of 6 mM of NH4Cl by microtiter plate method; type: functional
[37] = test system: Staphylococcus aureus; experiment: Antibacterial activity against methicillin resistant Staphylococcus aureus ATCC BAA-1556 incubated for 24 hrs; type: functional
[38] = test system: Staphylococcus aureus; experiment: Antibacterial activity against methicillin resistant Staphylococcus aureus ATCC BAA-1556 after 24 hrs in presence of 1 mM of by microtiter plate method; type: functional
[39] = test system: Staphylococcus aureus; experiment: Antibacterial activity against methicillin resistant Staphylococcus aureus ATCC BAA-1556 after 24 hrs in presence of 2 mM of CaCl2 by microtiter plate method; type: functional
[40] = test system: Staphylococcus aureus; experiment: Antibacterial activity against methicillin resistant Staphylococcus aureus ATCC BAA-1556 after 24 hrs in presence of fetal bovine serum by microtiter plate method; type: functional
[41] = test system: Staphylococcus aureus; experiment: Antibacterial activity against methicillin resistant Staphylococcus aureus ATCC BAA-1556 after 24 hrs in presence of 4.5 mM of KCl by microtiter plate method; type: functional

N=C(N)NCCC[C@@H]1NC(=O)[C@H](CCCNC(=N)N)NC(=O)[C@H](C(c2ccccc2)c2ccccc2)NC(=O)[C@H](C(c2ccccc2)c2ccccc2)NC(=O)[C@H](C(c2ccccc2)c2ccccc2)NC(=O)[C@H](CCCNC(=N)N)NC1=O (cyclo([Dip][Dip][Dip]RRR))
MIC [1]: 25 µg/mL (≈ 22 µM)
MIC [2]: 3.1 µg/mL (≈ 2.72 µM)
MIC [3]: > 50 µg/mL
MIC [4]: 3.1 µg/mL (≈ 2.72 µM)
MIC [5]: 50 µg/mL (≈ 43.9 µM)
MIC [6]: 50 µg/mL (≈ 43.9 µM)
MIC [7]: 3.1 µg/mL (≈ 2.72 µM)
MIC ([8]; ATCC 25922, 24 h, read-out: MIC): 12.5 µg/mL (≈ 11 µM)
Ratio [9]: 2
MIC [10]: 25 µg/mL (≈ 22 µM)
MIC [11]: 25 µg/mL (≈ 22 µM)
MIC [12]: 6.2 µg/mL (≈ 5.45 µM)
MIC [13]: 6.2 µg/mL (≈ 5.45 µM)
MIC [14]: 3.1 µg/mL (≈ 2.72 µM)
MIC [15]: 12.5 µg/mL (≈ 11 µM)
MIC ([16]; ATCC 27883, 24 h, read-out: MIC): 12.5 µg/mL (≈ 11 µM)
Ratio [17]: 2
MIC [18]: 12.5 µg/mL (≈ 11 µM)
HC50 at 2 h [19]: 45 µg/mL
MIC [20]: 12.5 µg/mL (≈ 11 µM)
MIC [21]: 25 µg/mL (≈ 22 µM)

CC[C@H](C)CCCCC(=O)N[C@@H](CCN)C(=O)N[C@H](C(=O)N[C@@H](CCN)C(=O)N[C@H]1CCNC(=O)[C@H]([C@@H](C)O)NC(=O)[C@H](CCN)NC(=O)[C@H](CCN)NC(=O)[C@H](CC(C)C)NC(=O)[C@@H](Cc2ccccc2)NC(=O)[C@H](CCN)NC1=O)[C@@H](C)O (X1-[Dab]T[Dab][Dab][Dab][dF]L[Dab][Dab]T; lactam 4-C)
MIC [2]: 0.7 µg/mL (≈ 0.582 µM)
Activity [22]: Tde
MIC [3]: 6.2 µg/mL (≈ 5.15 µM)
Activity [23]: Tde
MIC [24]: 0.7 µg/mL
MIC [25]: 0.7 µg/mL
Activity [26]: Active
MIC [5]: 0.7 µg/mL (≈ 0.582 µM)
MIC [27]: 3.1 µg/mL
MIC ([8]; ATCC 25922, read-out: MIC): 0.7 µg/mL (≈ 0.582 µM)
MBC [28]: 3.1 µg/mL (≈ 2.58 µM)
MIC [10]: 0.7 µg/mL (≈ 0.582 µM)
MIC [11]: 0.7 µg/mL (≈ 0.582 µM)
Activity [29]: Active
Activity [30]: Tde
MIC [31]: 0.7 µg/mL
MIC [32]: 1.5 µg/mL
Activity [33]: Tde
MIC [34]: 0.7 µg/mL
MIC ([16]; ATCC 27883, read-out: MIC): 0.7 µg/mL (≈ 0.582 µM)
MIC [20]: 1.5 µg/mL (≈ 1.25 µM)
MIC [21]: 0.7 µg/mL (≈ 0.582 µM)

O=C(O)c1cn(C2CC2)c2cc(N3CCNCC3)c(F)cc2c1=O [CIPROFLOXACIN]
MIC [2]: 1.5 µg/mL (≈ 4.53 µM)
Activity [22]: Tde
MIC [3]: 1.5 µg/mL (≈ 4.53 µM)
Activity [23]: Tde
MIC [24]: 0.3 µg/mL
MIC [25]: 0.3 µg/mL
Activity [26]: Active
MIC [5]: 0.7 µg/mL (≈ 2.11 µM)
MIC [27]: 0.3 µg/mL
MIC [35]: 1.5 µg/mL
MBC [28]: 12.5 µg/mL (≈ 37.7 µM)
MIC [10]: 0.7 µg/mL (≈ 2.11 µM)
MIC [36]: 0.7 µg/mL
MBC [37]: 50 µg/mL (≈ 151 µM)
MIC [38]: 1.5 µg/mL
Activity [29]: Active
Activity [30]: Tde
MIC [31]: 0.3 µg/mL
Activity [33]: Tde
MIC [39]: 1.5 µg/mL
MIC [14]: 3.1 µg/mL (≈ 9.36 µM)
MIC [34]: 0.3 µg/mL
MIC ([16]; ATCC 27883, read-out: MIC): 0.7 µg/mL (≈ 2.11 µM)
MIC [40]: 1.5 µg/mL
MIC [20]: 0.7 µg/mL (≈ 2.11 µM)
MIC [41]: 1.5 µg/mL
MIC [21]: 0.7 µg/mL (≈ 2.11 µM)
